Measurements published in patent US9409983B2, “Methods and compositions involving PBEF inhibitors for lung inflammation conditions and diseases” (The Board of Trustess of the University of Illinois, priority 2009, dated 2016).
“Also recorded” adds a separate entry of the source.

Legend:
C57BL/6 mice [1] = assay: Lung RNA microarray analysis (SAM dysregulated genes) with RT-PCR and BAL ELISA validation; type: in vivo, mouse
Protocol: Total lung RNA was isolated as described previously (Nonas et al., 2007). Affymetrix Mouse430_2 arrays (Affymetrix Inc., Santa Clara, Calif.) were utilized. Chip quality (Li and Wong, 2001) and ‘present’ or ‘absent’ expression calls were determined by GeneChip® Operating Software (GCOS) (GSE9368-rhPBEF, GSE9314-PBEF^+/−). Intensities and normalization of probe sets were calculated by Bioconductor software (GCRMA package) (Team RDC, 2005). To identify differentially-expressed genes, pairwise comparisons were conducted using Significance Analysis of Microarrays (SAM) as previously described (Nonas et al., 2007). Gene filtering parameters and results are summarized in Supplementary Table E2. Differentially-expressed genes displaying>2 fold changes are referred to as “dysregulated genes”.
Dysregulated gene functional profiles were analyzed using Onto-Express with the number of genes in each GO biological process category (Wu et al., 2004) compared with all genes on the […] chip to determine the significance of the GO category (Consortium, 2006). Ingenuity Pathway Analysis (IPA) software (containing individually modeled relationships between gene objects e.g. genes, mRNAs, proteins) was utilized to dynamically generate significant regulatory and signaling networks or pathways. The significance of a canonical pathway is controlled by the p-value calculated using the right-tailed Fisher Exact Test for 2×2 contingency tables. (See Supplemental Methods).
Lung total RNA was isolated from whole rodent lung tissue for microarray experiment as we have described previously (9) using the Affymetrix GeneChip platform and Expression Analysis Manual protocols (Affymetrix Inc., Santa Clara, Calif.). The signal intensity fluorescent images produced during Affymetrix GeneChip Mouse430_2 Array hybridizations were scanned using the Hewlett-Packard GeneArray Scanner G2500A. The ‘Present’ or ‘Absent’ calls of the probe sets in the expression chips were determined by GCOS (GeneChip® Operating Software) software. The microarray data have been submitted to the National Center for Biotechnology Information (NCBI)'s Gene Expression Omnibus repository (GSE9368 for rhPBEF study and GSE9314 for PBEF^+/− study). Chip quality (RNA degradation, cDNA synthesis, hybridization, chip washing, scanning) was evaluated with GCOS, dChip (Li and Wong, 2001) and Bioconductor ‘affy’ packages. All RNA samples and chips adopted in current study passed the quality criteria (data not shown). The intensities of probe sets were calculated by the GC Robust Multichip Average (GCRMA) package of Bioconductor software for normalization (Team RDC, 2005). To identify differentially-expressed genes, pairwise comparisons were conducted using Significance Analysis of Microarrays (SAM) (see the SAM online manual for detailed explanations of the blocking approach, www-stat.stanford.edu/˜tibs/SAM) as we have previously described (Nonas et al., 2007). Only probe sets present (determined by Affy ‘P’-call) in three replicates of at least one group with mean intensity above 100 were used for further data mining. The gene filtering parameters and results were summarized in Supplementary Table E2. […] For probe sets representing the same Entrez Gene or UniGene ID, only the probe set with lowest FDR or highest fold changes was included in the gene list.
Dysregulated genes were uploaded into the IPA software (http://www.ingenuity.com), a web-delivered application which utilizes the Ingenuity Pathways Knowledge Base (IPKB) containing a robust number of individually modeled relationships between gene objects (e.g. genes, mRNAs, proteins), in order to dynamically generate significant regulatory and signaling networks or pathways. […]

C57BL/6 mice [2] = assay: as above; type: in vivo, mouse; remark: listed apart in the source
[3] = test system: rat peritoneal neutrophils; assay: Transmigration and chemotaxis assay (Transwell); type: cell-based; details: rhPBEF (10 ng/ul) or casein in lower chamber, up to 4 hours
Protocol: Chemotaxis of rat peritoneal neutrophils (calcein-AM) across 3 μm polycarbonate filters was assessed in response to recombinant human PBEF/visfatin (rhPBEF, PeproTech, Rocky Hill, N.J.), or casein (positive control). (See Supplemental Methods for additional details).
Neutrophils were collected from retired breeder male Harlan-Sprague Dawley rats by intraperitoneal injection of 2.5% casein (5 ml). The resulting peritoneal fluid was recovered by PBS peritoneal lavage after 18 hr, centrifuged and examined for total cell counts and cell differentiation. For chemotaxis assays, leukocytes were exposed to calcein-AM in the presence of plurionic acid for 1 hr at room temperature. The temperature was then elevated to 37° C. for 30 min to cleave the calcein AM thereby reducing the rate of calcein diffusion out of the cells. […] The receiving wells were assessed serially in a fluorescent plate reader with absorption at 494 nm and emission measured at 517 nm. Fluorescence was recorded at 5, 10, 15, 30 min and each subsequent 30 min period for up to 4 hr. Aliquots of known numbers of neutrophils were counted in separate wells at each time point to account for any quenching of the fluorescence over time.

[4] = rhPBEF vs. Control, SAM, fold change 2
[5] = VILIa-rhPBEF vs. Control, SAM, fold change 2
[6] = VILIa-rhPBEF vs. VILIa, SAM, fold change 2

Substance: rhPBEF: Recombinant human soluble PBEF/visfatin, a 52 kDa protein containing 465 amino acid residues, purchased from PeproTech
- dysregulated genes in the NFκB pathway (C57BL/6 mice [1]; VILIa-rhPBEF combined exposure, Ingenuity Pathway Analysis): 21
- CxCL1 (KC) DNA microarray, average fold change increase over control (C57BL/6 mice [1]; rhPBEF): 510 fold change
- Map3k8 DNA microarray, average fold change increase over control (C57BL/6 mice [1]; rhPBEF): 3 fold change
- TNF-α DNA microarray, average fold change increase over control (C57BL/6 mice [1]; rhPBEF): 23 fold change
- BCL3 DNA microarray, average fold change increase over control (C57BL/6 mice [1]; rhPBEF VILIa): 11 fold change
- CxCL1 (KC) DNA microarray, average fold change increase over control (C57BL/6 mice [1]; rhPBEF VILIa): 589 fold change
- CxCL2 (MIP2α) DNA microarray, average fold change increase over control (C57BL/6 mice [1]; rhPBEF VILIa): 2128 fold change
- MMP9 DNA microarray, average fold change increase over control (C57BL/6 mice [1]; rhPBEF VILIa): 13 fold change
- Unique Down (C57BL/6 mice [1]; [4]): 118
- Significant probe sets (C57BL/6 mice [2]; [5]): 836
- Unique Down (C57BL/6 mice [2]; [5]): 258
- Unique Up (C57BL/6 mice [2]; [5]): 432
- Unique gene (dysregulated genes) (C57BL/6 mice [2]; [5]): 690
- Significant probe sets (C57BL/6 mice [2]; [6]): 82
- Unique Down (C57BL/6 mice [2]; [6]): 0
- Unique Up (C57BL/6 mice [2]; [6]): 65
- Unique gene (differentially expressed genes) (C57BL/6 mice [2]; [6]): 65
- BCL3 DNA microarray, average fold change increase over control (C57BL/6 mice [2]; rhPBEF): 7 fold change
- BCL3 RNA (RT-PCR), average fold change increase over control (C57BL/6 mice [2]; rhPBEF): 4 fold change
- CxCL1 (KC) Protein (BAL levels by ELISA), average fold change increase over control (C57BL/6 mice [2]; rhPBEF): 43 fold change
- CxCL1 (KC) RNA (RT-PCR), average fold change increase over control (C57BL/6 mice [2]; rhPBEF): 146 fold change
- CxCL2 (MIP2α) DNA microarray, average fold change increase over control (C57BL/6 mice [2]; rhPBEF): 2290 fold change
- CxCL2 (MIP2α) Protein (BAL levels by ELISA), average fold change increase over control (C57BL/6 mice [2]; rhPBEF): 115 fold change
- CxCL2 (MIP2α) RNA (RT-PCR), average fold change increase over control (C57BL/6 mice [2]; rhPBEF): 613 fold change
- IL-1-β DNA microarray, average fold change increase over control (C57BL/6 mice [2]; rhPBEF): 70 fold change
- IL-1-β Protein (BAL levels by ELISA), average fold change increase over control (C57BL/6 mice [2]; rhPBEF): 3 fold change
- IL-6 DNA microarray, average fold change increase over control (C57BL/6 mice [2]; rhPBEF): 240 fold change
- IL-6 Protein (BAL levels by ELISA), average fold change increase over control (C57BL/6 mice [2]; rhPBEF): 9 fold change
- MMP9 DNA microarray, average fold change increase over control (C57BL/6 mice [2]; rhPBEF): 16 fold change
- MMP9 RNA (RT-PCR), average fold change increase over control (C57BL/6 mice [2]; rhPBEF): 16 fold change
- Map3k8 RNA (RT-PCR), average fold change increase over control (C57BL/6 mice [2]; rhPBEF): 1 fold change
- TNF-α Protein (BAL levels by ELISA), average fold change increase over control (C57BL/6 mice [2]; rhPBEF): 43 fold change
- BCL3 RNA (RT-PCR), average fold change increase over control (C57BL/6 mice [2]; rhPBEF VILIa): 10 fold change
- CxCL1 (KC) Protein (BAL levels by ELISA), average fold change increase over control (C57BL/6 mice [2]; rhPBEF VILIa): 45 fold change
- CxCL1 (KC) RNA (RT-PCR), average fold change increase over control (C57BL/6 mice [2]; rhPBEF VILIa): 148 fold change
- CxCL2 (MIP2α) Protein (BAL levels by ELISA), average fold change increase over control (C57BL/6 mice [2]; rhPBEF VILIa): 196 fold change
- CxCL2 (MIP2α) RNA (RT-PCR), average fold change increase over control (C57BL/6 mice [2]; rhPBEF VILIa): 1479 fold change
- IL-1-β DNA microarray, average fold change increase over control (C57BL/6 mice [2]; rhPBEF VILIa): 87 fold change
- IL-1-β Protein (BAL levels by ELISA), average fold change increase over control (C57BL/6 mice [2]; rhPBEF VILIa): 3 fold change
- IL-6 DNA microarray, average fold change increase over control (C57BL/6 mice [2]; rhPBEF VILIa): 900 fold change
- IL-6 Protein (BAL levels by ELISA), average fold change increase over control (C57BL/6 mice [2]; rhPBEF VILIa): 27 fold change
- MMP9 RNA (RT-PCR), average fold change increase over control (C57BL/6 mice [2]; rhPBEF VILIa): 1 fold change
- Map3k8 DNA microarray, average fold change increase over control (C57BL/6 mice [2]; rhPBEF VILIa): 4 fold change
- Map3k8 RNA (RT-PCR), average fold change increase over control (C57BL/6 mice [2]; rhPBEF VILIa): 2 fold change
- TNF-α DNA microarray, average fold change increase over control (C57BL/6 mice [2]; rhPBEF VILIa): 23 fold change
- TNF-α Protein (BAL levels by ELISA), average fold change increase over control (C57BL/6 mice [2]; rhPBEF VILIa): 45 fold change
- Significant probe sets (C57BL/6 mice [2]; [4]): 613
- Unique Up (C57BL/6 mice [2]; [4]): 375
- Unique gene (dysregulated genes) (C57BL/6 mice [2]; [4]): 493
- PMN migration across Transwell filters [3]: significant PMN migration beginning after 2 hrs; also recorded: significant PMN migration beginning at 2 hrs
